From patent US20120178625A1, “METHOD FOR REDUCING PISTILLATE FLOWER ABORTION IN PLANTS” (BASF SE, priority 2009, published 2012)

Tested on: walnut (Juglans regia cv. Serr)
Experiment: Control of PFA (pistillate flower abortion) field trial in a walnut orchard, Graneros, Chile (2008/2009)
Format: in vivo
Conditions: water 1500 l/ha
From the text: In the terms of the present invention, “reducing pistillate flower abortion in plants” refers to a reduction in the level of PFA. This reduction can be measured by determining a) the fruit set (%), b) the number of growing fruits (%) and/or c) the remaining fruits at harvest (%) (fruit yield). The higher the percentage of fruit set, growing fruits and/or remaining fruits at harvest, the lower the respective pistillate flower abortion. The trial was run in a walnut orchard (Juglans regia cv. Serr) located in Graneros, Chile in the year 2008. Trial design was completely randomized with 3 replicates per treatment. Each replicate had identified branches completing 100 female flowers. Remaining fruit were counted after fruit set and at harvest time. […] [table] […] As a consequence PFA was quite high, influencing adversely yields in orchard where no ethylene control was done.

[1] = Treatment No. 2: 0.5 l/ha, 2 applications (10% and 30% of pistillates flowering)
[2] = Treatment No. 5: 0.7 l/ha + 0.015% Break-Thru, 3 applications (10%, 30% and 50% of pistillates flowering)

`COC(=O)N(OC)c1ccccc1COc1ccn(-c2ccc(Cl)cc2)n1` [Pyraclostrobin, pyraclostrobin] was tested, and the “Fruit set (%) (Oct. 23, 2008)” value [1] was 54.0%, the “Increase (%) compared to UTC, fruit set” value [1] was “+108%” and the “Increase (%) compared to UTC, remaining fruits at harvest” value [1] was “+106%”. For the same compound, the “Increase (%) compared to UTC, small growing fruits” value [1] was “+104%”, the “Remaining fruits at harvest (%) (Mar. 03, 2009)” value [1] was 46.0% and the “Small growing fruits (%) (Nov. 10, 2008)” value [1] was 46.3%. The “Increase (%) compared to UTC, fruit set” value [2] was “+165%”, the “Increase (%) compared to UTC, remaining fruits at harvest” value [2] was “+200%” and the “Increase (%) compared to UTC, small growing fruits” value [2] was “+201%”.
